Data reported in ChEMBL document CHEMBL4229557, “Synthesis and SAR of new isoxazole-triazole bis-heterocyclic compounds as analogues of natural lignans with antiparasitic activity” (Bioorg Med Chem, 2018).
The source made the active and inactive calls. The rule behind the calls is not given here.

Columns and labels:
Leishmania amazonensis [1] = assay: Growth inhibition of Leishmania amazonensis MHOM/BR/77/LTB0016 amastigote forms expressing beta-galactosidase infected in human THP1 cells at 100 uM by colorimetrc assay relative to control; format: functional; conditions: for inhibition of growth at 100 µM: MHOM/BR/77/LTB0016, THP-1, read-out: GI
Trypanosoma cruzi [2] = assay: Growth inhibition of Trypanosoma cruzi Tulahuen amastigote forms infected in human THP1 cells at 100 uM after 72 hrs by beta-galactosidase reporter gene assay relative to control; format: functional; conditions: THP-1, 72 h, read-out: GI
Trypanosoma cruzi [3] = assay: Growth inhibition of Trypanosoma cruzi Tulahuen amastigote forms infected in human THP1 cells after 72 hrs by beta-galactosidase reporter gene assay; format: functional
[4] = target: Trypanothione reductase (Trypanosoma cruzi) (UniProt P28593); assay: Inhibition of Trypanosoma cruzi Trypanothione reductase expressed in Escherichia coli BL21(DE3) at 100 uM using T(S)2 as substrate incubated for 30 mins measured for 30 mins in presence of NADPH by DTNB reagent based assay relative to control
[5] = Selectivity index, ratio of CC50 for human THP1 cells to GI50 for Trypanosoma cruzi Tulahuen amastigote forms infected in human THP1 cells; format: toxicity, cell-based; conditions: read-out: Selectivity Index
[6] = Cytotoxicity against human THP1 cells after 72 hrs by MTT assay; format: cell-based; conditions: THP-1 cells
Trypanosoma cruzi [7] = assay: Growth inhibition of Trypanosoma cruzi Tulahuen amastigote forms infected in human THP1 cells at 20 uM after 72 hrs by beta-galactosidase reporter gene assay relative to control; format: functional; conditions: THP-1, 72 h, read-out: GI
Leishmania amazonensis [8] = assay: Growth inhibition of Leishmania amazonensis MHOM/BR/77/LTB0016 amastigote forms expressing beta-galactosidase infected in human THP1 cells at 2 uM by colorimetrc assay relative to control; format: functional; conditions: MHOM/BR/77/LTB0016, THP-1, read-out: GI

Sequence of Trypanothione reductase (Trypanosoma cruzi) (P28593 whole entry, looked up): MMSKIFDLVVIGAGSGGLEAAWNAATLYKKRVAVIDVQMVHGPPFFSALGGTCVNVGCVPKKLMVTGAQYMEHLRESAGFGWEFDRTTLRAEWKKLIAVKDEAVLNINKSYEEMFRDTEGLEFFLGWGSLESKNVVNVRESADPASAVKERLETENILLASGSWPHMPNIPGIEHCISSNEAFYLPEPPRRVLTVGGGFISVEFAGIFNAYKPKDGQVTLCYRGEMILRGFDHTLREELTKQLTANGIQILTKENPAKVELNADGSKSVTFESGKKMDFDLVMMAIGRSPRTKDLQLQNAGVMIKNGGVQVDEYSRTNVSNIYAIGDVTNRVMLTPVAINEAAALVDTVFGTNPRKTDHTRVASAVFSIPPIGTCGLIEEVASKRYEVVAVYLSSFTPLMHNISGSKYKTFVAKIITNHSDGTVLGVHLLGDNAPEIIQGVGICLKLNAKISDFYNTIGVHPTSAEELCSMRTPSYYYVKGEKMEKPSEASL

| Structure (SMILES) | GI50 (Trypanosoma cruzi [3]; THP-1, 72 h) [µM] | growth inhibition (GI) (Leishmania amazonensis [1]) | inhibition of growth at 100 µM (Trypanosoma cruzi [2]) [%] | also measured |
| --- | --- | --- | --- | --- |
| COc1ccc(-c2cc(Cn3cc(-c4ccccc4)nn3)on2)cc1OC | > 100 | inactive | 12.2 | – |
| COc1ccc(-c2cc(Cn3cc(-c4cc(OC)cc(OC)c4)nn3)on2)cc1 | > 100 | inactive | 3.6 | – |
| COc1ccc(-c2cn(Cc3cc(-c4ccc(OC)c(OC)c4)no3)nn2)cc1 | 22.7 | inactive | 81.9 | inhibition [4]: 9.6%; selectivity ratio [5]: > 22; CC50 at 72 h [6]: > 500 µM |
| CCCCCc1ccc(-c2cn(Cc3cc(-c4ccc(OC)c(OC)c4)no3)nn2)cc1 | 12.2 | inactive | 80.2 | inhibition [4]: 0%; selectivity ratio [5]: > 41; CC50 at 72 h [6]: > 500 µM |
| c1ccc(-c2cn(Cc3cc(-c4ccccc4)no3)nn2)cc1 | > 100 | inactive | 33.7 | – |
| COc1ccc(-c2cc(Cn3cc(-c4ccc(N)cc4)nn3)on2)cc1OC | > 100 | inactive | 42.8 | – |
| COc1ccc(-c2cn(Cc3cc(-c4ccccc4)no3)nn2)c(C)c1 | > 100 | inactive | 18.6 | – |
| CCCCCc1ccc(-c2cn(Cc3cc(-c4ccc5c(c4)OCO5)no3)nn2)cc1 | > 100 | – | 48.9 | inhibition of growth at 100 µM (Leishmania amazonensis [1]): 1.7% |
| COc1ccccc1-c1cn(Cc2cc(-c3ccccc3)no2)nn1 | > 100 | inactive | 12.4 | – |
| Fc1ccc(-c2cn(Cc3cc(-c4ccccc4)no3)nn2)cc1 | – | inactive | 0 | GI50 (Trypanosoma cruzi [3]): inactive |
| FC(F)(F)Oc1ccc(-c2cn(Cc3cc(-c4ccc5c(c4)OCO5)no3)nn2)cc1 | > 100 | inactive | 26.8 | – |
| COc1ccc(-c2cc(Cn3cc(-c4cc(C)c(C)cc4C)nn3)on2)cc1 | > 100 | inactive | 33.4 | – |
| CCCCCc1ccc(-c2cn(Cc3cc(-c4ccccc4)no3)nn2)cc1 | – | inactive | 0 | GI50 (Trypanosoma cruzi [3]): inactive |
| Nc1ccc(-c2cn(Cc3cc(-c4ccccc4)no3)nn2)cc1 | – | inactive | 0 | GI50 (Trypanosoma cruzi [3]): inactive |
| OCc1ccc(-c2cn(Cc3cc(-c4ccccc4)no3)nn2)cc1 | – | inactive | 0 | GI50 (Trypanosoma cruzi [3]): inactive |
| CCCCCc1ccc(-c2cn(Cc3cc(-c4ccc(OC)cc4)no3)nn2)cc1 | > 100 | inactive | 13.4 | – |
| C[C@@H]1[C@H](O)[C@@H](C)/C=C/C=C/C=C/C=C/C=C/C=C/C=C/[C@H](O[C@@H]2O[C@H](C)[C@@H](O)[C@H](N)[C@@H]2O)C[C@@H]2O[C@](O)(C[C@@H](O)C[C@@H](O)[C@H](O)CC[C@@H](O)C[C@@H](O)CC(=O)O[C@H]1C)C[C@H](O)[C@H]2C(=O)O [AMPHOTERICIN B] | – | – | – | inhibition of growth at 2 µM (Leishmania amazonensis [8]): 96.5% |
| COc1cc(OC)cc(-c2cn(Cc3cc(-c4ccc5c(c4)OCO5)no3)nn2)c1 | 49.9 | inactive | 87.9 | inhibition [4]: 0%; selectivity ratio [5]: 4.2; CC50 at 72 h [6]: 208 µM |
| COc1ccc(-c2cc(Cn3cc(-c4ccc(F)cc4)nn3)on2)cc1OC | > 100 | inactive | 32 | – |
| COc1ccc(-c2cn(Cc3cc(-c4ccccc4)no3)nn2)cc1 | > 100 | inactive | 43.3 | – |
| Cc1ccc(C)c(-c2cn(Cc3cc(-c4ccccc4)no3)nn2)c1 | – | inactive | 0 | GI50 (Trypanosoma cruzi [3]): inactive |
| FC(F)(F)Oc1ccc(-c2cn(Cc3cc(-c4ccccc4)no3)nn2)cc1 | > 100 | inactive | 28.7 | – |

Further lines, with some results ahead:

| GI50 (Trypanosoma cruzi [3]; THP-1, 72 h) [µM] | Structure (SMILES) | growth inhibition (GI) (Leishmania amazonensis [1]) | inhibition of growth at 100 µM (Trypanosoma cruzi [2]) [%] | also measured |
| --- | --- | --- | --- | --- |
| 54.5 | COc1cc(OC)cc(-c2cn(Cc3cc(-c4ccccc4)no3)nn2)c1 | inactive | 95.3 | inhibition [4]: 0%; selectivity ratio [5]: 2.6; CC50 at 72 h [6]: 143 µM |
| 55.2 | COc1ccc(-c2cc(Cn3cc(-c4cc(C)c(C)cc4C)nn3)on2)cc1OC | inactive | 89.6 | inhibition [4]: 9%; selectivity ratio [5]: > 9; CC50 at 72 h [6]: > 500 µM |
| > 100 | COc1ccc(-c2cc(Cn3cc(-c4ccc([N+](=O)[O-])cc4)nn3)on2)cc1OC | inactive | 37.8 | – |
| 10.2 | O=C(Cn1ccnc1[N+](=O)[O-])NCc1ccccc1 [BENZNIDAZOLE] | – | – | inhibition of growth at 20 µM (Trypanosoma cruzi [7]): 93%; selectivity ratio [5]: > 49; CC50 at 72 h [6]: > 500 µM |
| > 100 | COc1ccc(-c2cc(Cn3cc(-c4ccc(N(C)C)cc4)nn3)on2)cc1OC | inactive | 33.9 | – |
| 88.4 | Cc1cc(C)c(-c2cn(Cc3cc(-c4ccccc4)no3)nn2)cc1C | inactive | 89.5 | inhibition [4]: 0%; selectivity ratio [5]: 2.3; CC50 at 72 h [6]: 200 µM |
| > 100 | COc1ccc(-c2cc(Cn3cc(-c4ccccc4OC)nn3)on2)cc1OC | inactive | 43.7 | – |
| > 100 | Cc1cc(C)c(-c2cn(Cc3cc(-c4ccc5c(c4)OCO5)no3)nn2)cc1C | inactive | 13.4 | – |
| 30.3 | COc1cc(OC)cc(-c2cn(Cc3cc(-c4ccc(OC)c(OC)c4)no3)nn2)c1 | inactive | 74.8 | inhibition [4]: 8.9%; selectivity ratio [5]: > 16.5; CC50 at 72 h [6]: > 500 µM |
| 14 | CN(C)CCCN1c2ccccc2CCc2ccc(Cl)cc21 [CLOMIPRAMINE] | – | – | – |
| > 100 | COc1ccc(-c2cc(Cn3cc(-c4ccc(C)cc4)nn3)on2)cc1OC | inactive | 7.6 | – |
| > 100 | COc1ccc(-c2cc(Cn3cc(-c4ccc(OC(F)(F)F)cc4)nn3)on2)cc1 | inactive | 26 | – |
| > 100 | COc1ccc(-c2cc(Cn3cc(-c4ccc(CO)cc4)nn3)on2)cc1OC | inactive | 43.4 | – |
| > 100 | COc1ccc(-c2cn(Cc3cc(-c4ccc5c(c4)OCO5)no3)nn2)cc1 | – | 9.9 | inhibition of growth at 100 µM (Leishmania amazonensis [1]): 2.8% |
| > 100 | COc1ccc(-c2cc(Cn3cc(-c4cc(C)ccc4C)nn3)on2)cc1OC | inactive | 4 | – |
| > 100 | COc1ccc(-c2cn(Cc3cc(-c4ccc(OC)cc4)no3)nn2)cc1 | inactive | 43.2 | – |
| > 100 | CN(C)c1ccc(-c2cn(Cc3cc(-c4ccccc4)no3)nn2)cc1 | inactive | 32.6 | – |
| > 100 | COc1ccc2cc(-c3cn(Cc4cc(-c5ccc(OC)c(OC)c5)no4)nn3)ccc2c1 | inactive | 26.2 | – |
| > 100 | COc1ccc2cc(-c3cn(Cc4cc(-c5ccccc5)no4)nn3)ccc2c1 | inactive | 43.1 | – |
| > 100 | Cc1ccc(-c2cn(Cc3cc(-c4ccccc4)no3)nn2)cc1 | inactive | 45.2 | – |
| > 100 | O=[N+]([O-])c1ccc(-c2cn(Cc3cc(-c4ccccc4)no3)nn2)cc1 | inactive | 46.9 | – |
| 40.1 | COc1ccc(-c2cc(Cn3cc(-c4ccc(OC(F)(F)F)cc4)nn3)on2)cc1OC | inactive | 78.5 | inhibition [4]: 0%; selectivity ratio [5]: 5.7; CC50 at 72 h [6]: 227 µM |
| > 100 | COc1ccc(-c2cn(Cc3cc(-c4ccc(OC)c(OC)c4)no3)nn2)c(C)c1 | inactive | 13.6 | – |
